{"source": "patent US20110217309A1", "about": "“BIOLOGICAL MARKERS PREDICTIVE OF ANTI-CANCER RESPONSE TO INSULIN-LIKE GROWTH FACTOR-1 RECEPTOR KINASE INHIBITORS” (priority 2010, published 2011)", "key": {"[1]": {"tested_on": "Colo205 tumors", "test": "Tumor xenograft study", "details": "treatment in vivo for 10-14 days"}, "[2]": {"tested_on": "H295R tumors", "test": "Tumor xenograft study", "details": "treatment in vivo for 10-14 days"}, "[3]": {"tested_on": "FaDu tumors", "test": "Tumor xenograft study", "details": "treatment in vivo for 10-14 days"}, "[4]": {"tested_on": "BxPC3 tumors", "test": "Tumor xenograft study", "details": "treatment in vivo for 10-14 days"}, "[5]": {"tested_on": "MDAH-2774 ovarian tumor cells", "test": "Caspase 3/7 Glo apoptosis assay", "assay_type": "cell-based, human", "details": "with 10 nM pactitaxel", "procedure": "Measurement of apoptosis: Induction of apoptosis as measured by increased Caspase 3/7 activity was determined using the Caspase 3/7 Glo assay (Promega Corporation, Madison, Wis.). Cell lines were seeded at a density of 3000 cells per well in a 96-well plate. 24 hours after plating, cells were dosed with compounds. The signal for Caspase 3/7 Glo was determined 24 hours after dosing. The caspase 3/7 activity was normalized to cell number per well, using a parallel plate treated with Cell Titer Glo (Promega Corporation, Madison, Wis.). Signal for each well was normalized using the following formula: Caspase 3/7 Glo luminescence units/Cell Titer Glo fraction of DMSO control. All graphs were generated using PRISM® software (Graphpad Software, San Diego, Calif.)."}, "[6]": {"tested_on": "Akt", "test": "Phosphorylation of Akt (pAKT levels)", "assay_type": "cell-based", "details": "OSI-906, in the presence or absence of pactitaxel (100, 30, 10, 3, 1 nM)", "procedure": "The dotted line in the plot represents the calculated theoretical expectation if the combination was additive in nature, and was determined using the Bliss model for additivity. […] C.\nThe dotted line in the plot represents the calculated theoretical result if the combination was additive in nature, and was determined using the Bliss model for additivity."}, "[7]": {"tested_on": "MC116", "test": "Cell Titer Glo proliferation assay, 88 cell line panel", "assay_type": "cell-based, human", "details": "MC116 lymphoma, PTEN mutant, 72 hours", "procedure": "(§1) Proliferation Assay. […] The basis of the assay is a luminescent quantitation of ATP present in a cell culture plate well. In essence, the greater the number of viable cells in the well, the greater the level of ATP present. The assay utilizes a substrate that binds ATP to produce a luminescent signal, which can be read on a luminometer. Unless otherwise noted, the manufacturer's instructions were followed exactly. Briefly, on Day 1, cells were plated in 120 μl of 10% serum-containing growth media at a density of 4000 cells/well in a white polystyrene 96 well assay plate. […] After 72 h incubation with the inhibitor, the cells were assayed. Results were calculated as a fraction of the DMSO controlled cells.\n(§2) This included cell lines representing ovarian cancer (A2780 and EFO-27), SCCHN (HSC-4), SCLC (NCI-H446), CRC (KM12), lymphoma (MC116), breast cancer (BT549 and HCC70), and prostate cancer (PC3)."}, "[8]": {"tested_on": "HSC-4", "test": "Cell Titer Glo proliferation assay, 88 cell line panel", "assay_type": "cell-based, human", "details": "HSC-4 SCCHN, PTEN mutant, 72 hours", "procedure": "as §1, §2"}, "[9]": {"tested_on": "A2780", "test": "Cell Titer Glo proliferation assay, 88 cell line panel", "assay_type": "cell-based, human", "details": "A2780 ovarian cancer, PTEN mutant, 72 hours", "procedure": "as §1, §2"}, "[10]": {"tested_on": "KM12", "test": "Cell Titer Glo proliferation assay, 88 cell line panel", "assay_type": "cell-based, human", "details": "KM12 CRC, PTEN mutant, 72 hours", "procedure": "as §1, §2"}, "[11]": {"tested_on": "PC3", "test": "Cell Titer Glo proliferation assay, 88 cell line panel", "assay_type": "cell-based, human", "details": "PC3 prostate cancer, PTEN mutant, 72 hours", "procedure": "as §1, §2"}, "[12]": {"tested_on": "BT549", "test": "Cell Titer Glo proliferation assay, 88 cell line panel", "assay_type": "cell-based, human", "details": "BT549 breast cancer, PTEN mutant, 72 hours", "procedure": "as §1, §2"}, "[13]": {"tested_on": "EFO-27", "test": "Cell Titer Glo proliferation assay, 88 cell line panel", "assay_type": "cell-based, human", "details": "EFO-27 ovarian cancer, PTEN mutant, 72 hours", "procedure": "as §1, §2"}, "[14]": {"tested_on": "NCI-H446", "test": "Cell Titer Glo proliferation assay, 88 cell line panel", "assay_type": "cell-based, human", "details": "NCI-H446 SCLC, PTEN mutant, 72 hours", "procedure": "as §1, §2"}, "[15]": {"tested_on": "HCC70", "test": "Cell Titer Glo proliferation assay, 88 cell line panel", "assay_type": "cell-based, human", "details": "HCC70 breast cancer, PTEN mutant, 72 hours", "procedure": "as §1, §2"}, "[16]": {"tested_on": "SKNAS tumors", "test": "Tumor xenograft study", "details": "treatment in vivo for 10-14 days"}, "[17]": {"tested_on": "H460 tumors", "test": "Tumor xenograft study", "details": "treatment in vivo for 10-14 days"}}}
{"smiles": "C[C@]1(O)C[C@@H](c2nc(-c3ccc4ccc(-c5ccccc5)nc4c3)c3c(N)nccn32)C1", "note": "[OSI-906, cis-3-[8-amino-1-(2-phenyl-quinolin-7-yl)-imidazo[1,5-a]pyrazin-3-yl]-1-methyl-cyclobutanol]", "values": [{"measurement": "% TGI (tumor growth inhibition)", "setting": "[1]", "value": 90, "unit": "%"}, {"measurement": "% TGI (tumor growth inhibition)", "setting": "[2]", "value": 85, "unit": "%"}, {"measurement": "% TGI (tumor growth inhibition)", "setting": "[3]", "value": "< 30", "unit": "%"}, {"measurement": "% TGI (tumor growth inhibition)", "setting": "[4]", "value": 56, "unit": "%"}, {"measurement": "induction of apoptosis", "setting": "[5]", "value": "enhances the induction of apoptosis"}, {"measurement": "phosphorylation of Akt (pAKT levels)", "setting": "[6]", "value": "decrease"}, {"measurement": "sensitivity to OSI-906", "setting": "[7]", "value": "insensitive (insensitive (EC50>10 μM))"}, {"measurement": "sensitivity to OSI-906", "setting": "[8]", "value": "insensitive (insensitive (EC50>10 μM))"}, {"measurement": "sensitivity to OSI-906", "setting": "[9]", "value": "insensitive (insensitive (EC50>10 μM))"}, {"measurement": "sensitivity to OSI-906", "setting": "[10]", "value": "insensitive (insensitive (EC50>10 μM))"}, {"measurement": "sensitivity to OSI-906", "setting": "[11]", "value": "insensitive (insensitive (EC50>10 μM))"}, {"measurement": "sensitivity to OSI-906", "setting": "[12]", "value": "insensitive (insensitive (EC50>10 μM))"}, {"measurement": "sensitivity to OSI-906", "setting": "[13]", "value": "insensitive (insensitive (EC50>10 μM))"}, {"measurement": "sensitivity to OSI-906", "setting": "[14]", "value": "insensitive (insensitive (EC50>10 μM))"}, {"measurement": "sensitivity to OSI-906", "setting": "[15]", "value": "insensitive (insensitive (EC50>10 μM))"}, {"measurement": "% TGI (tumor growth inhibition)", "setting": "[16]", "value": 71, "unit": "%"}, {"measurement": "% TGI (tumor growth inhibition)", "setting": "[17]", "value": "< 30", "unit": "%"}]}
